We go through 23 molecules from patent US20260092076A1, “NOVEL COMPOUNDS” (Hoffmann-La Roche Inc., priority 2023, published 2026).

The IC50 is the concentration that inhibits the measured activity by half.

Where a name gives a salt, the structure may show the parent alone.

For test [1], the target named is T1, NLRP3 (Homo sapiens, UniProt Q96P20). The experiment in a line: Human whole blood IL-1β release assay. In kind it is cell-based. The settings on record: human whole blood with 1 μg/ml LPS, compound 3 hours, nigericin 10 μM 1 hr, IL-1β by AlphaLisa. As for the experimental part: For systemic delivery, the ability to inhibit NLRP3 when the compounds are present within the bloodstream is of great importance. For this reason, the NLRP3 inhibitory activity of a number of compounds in human whole blood was investigated in accordance with the following protocol. • Human whole blood in Li-heparin tubes was obtained from healthy donors from a volunteer donor panel. • Plate out 80 μl of whole blood containing 1 μg/ml of LPS in 96-well, clear bottom cell culture plate (Corning #3585) • Add 10 μl compound (8 points half-log dilution with 10 μM top dose) or vehicle (DMSO 0.1% FAC) to the appropriate wells • Incubate for 3 hours at 37° C., 5% CO2 • Add 10 μl nigericin (Sigma #N7143) (10 μM FAC) to all wells • Incubate for 1 hr at 37° C., 5% CO2 • At the end of the incubation period, spin plates at 300×g for 5 mins to pellet cells and remove 20 μl of supernatant and add to 96-well v-bottom plates for IL-1β analysis (note: these plates containing the supernatants can be stored at −80° C. to be analysed at a later date) • IL-1β was measured according to the manufacturer protocol (Perkin Elmer-AlphaLisa IL-1 Kit AL220F-5000) • IC50 data is fitted to a non-linear regression equation (log inhibitor vs response-variable slope 4-parameters)
T1 sequence (Q96P20 whole entry): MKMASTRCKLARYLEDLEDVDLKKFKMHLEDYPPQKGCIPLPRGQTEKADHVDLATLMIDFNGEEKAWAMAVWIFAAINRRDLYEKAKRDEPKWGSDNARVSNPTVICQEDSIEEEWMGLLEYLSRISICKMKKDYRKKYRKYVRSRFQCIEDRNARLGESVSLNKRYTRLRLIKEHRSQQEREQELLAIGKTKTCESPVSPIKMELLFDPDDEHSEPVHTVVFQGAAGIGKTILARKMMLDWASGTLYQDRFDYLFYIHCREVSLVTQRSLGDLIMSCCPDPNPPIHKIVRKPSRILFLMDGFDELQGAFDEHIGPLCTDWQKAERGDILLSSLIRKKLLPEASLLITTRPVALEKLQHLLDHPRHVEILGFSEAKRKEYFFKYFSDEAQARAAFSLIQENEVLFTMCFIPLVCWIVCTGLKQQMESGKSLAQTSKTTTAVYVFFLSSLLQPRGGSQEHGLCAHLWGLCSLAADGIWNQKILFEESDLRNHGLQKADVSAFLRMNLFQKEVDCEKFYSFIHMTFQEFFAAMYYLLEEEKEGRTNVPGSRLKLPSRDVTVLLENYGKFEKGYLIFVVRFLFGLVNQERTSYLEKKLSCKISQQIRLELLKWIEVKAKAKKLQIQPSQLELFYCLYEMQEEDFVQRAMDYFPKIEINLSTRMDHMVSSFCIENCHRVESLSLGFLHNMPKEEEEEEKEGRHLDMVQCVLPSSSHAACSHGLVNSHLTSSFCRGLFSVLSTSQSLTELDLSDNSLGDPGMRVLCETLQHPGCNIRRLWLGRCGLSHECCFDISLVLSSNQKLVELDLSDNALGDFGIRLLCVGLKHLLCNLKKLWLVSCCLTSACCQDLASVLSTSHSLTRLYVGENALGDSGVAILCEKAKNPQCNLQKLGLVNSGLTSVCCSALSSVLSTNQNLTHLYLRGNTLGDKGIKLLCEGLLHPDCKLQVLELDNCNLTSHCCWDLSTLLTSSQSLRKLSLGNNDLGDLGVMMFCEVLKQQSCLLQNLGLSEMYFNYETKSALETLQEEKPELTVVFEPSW

Test [2] has as its target T1, NLRP3. The experiment in a line: THP-1 cells pyroptosis assay. In kind it is cell-based. Details: Seed THP-1 cells (25,000 cells/well) containing 1.0 μg/ml LPS in 40 μl of RPMI medium; host or cells: THP-1 cells, LPS-primed, nigericin-stimulated. The settings on record: THP-1 cells with 1.0 μg/ml LPS, compound 3 hours, nigericin 5 μM 1 hr, resazurin readout. On the procedure:
THP-1 cells (ATCC #TIB-202) were grown in RPMI containing L-glutamine (Gibco #11835) supplemented with 1 mM sodium pyruvate (Sigma #S8636) and penicillin (100 units/ml)/streptomycin (0.1 mg/ml) (Sigma #P4333) in 10% Fetal Bovine Serum (FBS) (Sigma #F0804). The cells were routinely passaged and grown to confluency (˜10^6 cells/ml). On the day of the experiment, THP-1 cells were harvested and resuspended into RPMI medium (without FBS). The cells were then counted and viability (>90%) checked by Trypan blue (Sigma #T8154). Appropriate dilutions were made to give a concentration of 625,000 cells/ml. To this diluted cell solution was added LPS (Sigma #L4524) to give a 1 μg/ml Final Assay Concentration (FAC). 40 μl of the final preparation was aliquoted into each well of a 96-well plate. The plate thus prepared was used for compound screening.
The following method step-by-step assay was followed for compound screening. • Seed THP-1 cells (25,000 cells/well) containing 1.0 μg/ml LPS in 40 μl of RPMI medium (without FBS) in 96-well, black walled, clear bottom cell culture plates coated with poly-D-lysine (VWR #734-0317) • Add 5 μl compound (8 points half-log dilution, with 10 μM top dose) or vehicle (DMSO 0.1% FAC) to the appropriate wells • Incubate for 3 hours at 37° C., 5% CO2 • Add 5 μl nigericin (Sigma #N7143) (FAC 5 μM) to all wells • Incubate for 1 hr at 37° C., 5% CO2 • At the end of the incubation period, spin plates at 300×g for 3 mins and remove supernatant • Then add 50 μl of resazurin (Sigma #R7017) (FAC 100 μM resazurin in RPMI medium without FBS) and incubate plates for a further 1-2 hours at 37° C. and 5% CO2 • Plates were read in an Envision reader at Ex 560 nm and Em 590 nm • IC50 data is fitted to a non-linear regression equation (log inhibitor vs response-variable slope 4-parameters)

For `Cc1cc(C(F)(F)F)cc(O)c1-c1ccc2oc(N3Cc4cc(=O)n(C)cc4C3)nc2n1` [Example 2, 2-[5-[2-Hydroxy-6-methyl-4-(trifluoromethyl)phenyl]oxazolo[4,5-b]pyridin-2-yl]-5-methyl-1,3-dihydropyrrolo[3,4-c]pyridin-6-one], the IC50 against NLRP3 [1] amounted to 301 nM; on NLRP3 [2], 3.3 nM. With `Cc1cc(C#N)cc(O)c1-c1ccc2oc(N3CCc4ncncc4C3)nc2n1` [Example 17, 4-[2-(7,8-Dihydro-5H-pyrido[4,3-d]pyrimidin-6-yl)oxazolo[4,5-b]pyridin-5-yl]-3-hydroxy-5-methyl-benzonitrile], the IC50 against NLRP3 [1] is 225 nM; against NLRP3 [2], 34.9 nM. As for `Cc1cc(C(F)(F)F)cc(O)c1-c1ccc2oc(N3CCc4nc[nH]c(=O)c4C3)nc2n1` [Example 41, 6-[5-[2-Hydroxy-6-methyl-4-(trifluoromethyl)phenyl]oxazolo[4,5-b]pyridin-2-yl]-3,5,7,8-tetrahydropyrido[4,3-d]pyrimidin-4-one], at NLRP3 [2], it took 174 nM to reach half-maximal inhibition (IC50). That is a sub-micromolar value. For `Cc1cc(C(F)F)cc(O)c1-c1ccc2oc(N3CCc4ncncc4C3)nc2n1` [Example 26, 5-(Difluoromethyl)-2-[2-(7,8-dihydro-5H-pyrido[4,3-d]pyrimidin-6-yl)oxazolo[4,5-b]pyridin-5-yl]-3-methyl-phenol], the IC50 against NLRP3 [1] is 166 nM; on NLRP3 [2], 46.7 nM. Consider `Cc1cc(C#N)cc(O)c1-c1ccc2oc(N3Cc4ccncc4C3)nc2n1` [Example 10, 4-[2-(1,3-Dihydropyrrolo[3,4-c]pyridin-2-yl)oxazolo[4,5-b]pyridin-5-yl]-3-hydroxy-5-methyl-benzonitrile], for which the IC50 at NLRP3 [1] came to 2230 nM; on NLRP3 [2], 29 nM.

Take `Cc1cc(Cl)cc(O)c1-c1ccc2oc(N3Cc4cncnc4C3)nc2n1` [Example 13, 5-Chloro-2-[2-(5,7-dihydropyrrolo[3,4-d]pyrimidin-6-yl)oxazolo[4,5-b]pyridin-5-yl]-3-methyl-phenol formic acid salt]: the IC50 against NLRP3 [1] came to 304 nM; at NLRP3 [2], 15 nM. The corresponding values for `Cc1cc(Cl)cc(O)c1-c1cnc2oc(N3Cc4ccncc4C3)nc2n1` [Example 29, 5-Chloro-2-[2-(1,3-dihydropyrrolo[3,4-c]pyridin-2-yl)oxazolo[4,5-b]pyrazin-5-yl]-3-methyl-phenol; formic acid] are 35.9 nM and 2.1 nM. The like results for `Cc1cc(Cl)cc(O)c1-c1ccc2oc(N3CCc4[nH]c(=O)ncc4C3)nc2n1` [Example 36, 6-[5-(4-Chloro-2-hydroxy-6-methyl-phenyl)oxazolo[4,5-b]pyridin-2-yl]-1,5,7,8-tetrahydropyrido[4,3-d]pyrimidin-2-one] were, in that order, 168 nM and 46.3 nM. The like results for `Cc1cc(Cl)cc(O)c1-c1ccc2oc(N3Cc4ccncc4C3)nc2n1` [Example 7, 5-chloro-2-[2-(1,3-dihydropyrrolo[3,4-c]pyridin-2-yl)oxazolo[4,5-b]pyridin-5-yl]-3-methyl-phenol] were, in that order, 487 nM and 9.5 nM. In the case of `Cc1cc(C(F)(F)F)cc(O)c1-c1ccc2oc(N3Cc4ccc(=O)n(C)c4C3)nc2n1` [Example 21, 6-[5-[2-Hydroxy-6-methyl-4-(trifluoromethyl)phenyl]oxazolo[4,5-b]pyridin-2-yl]-1-methyl-5,7-dihydropyrrolo[3,4-b]pyridin-2-one], the figures for the IC50 against NLRP3 [1] and at NLRP3 [2] were 1960 nM and 22.3 nM, respectively. The corresponding values for `Cc1cc(Cl)cc(O)c1-c1ccc2oc(N3CCc4ncncc4C3)nc2n1` [Example 31, 5-Chloro-2-[2-(7,8-dihydro-5H-pyrido[4,3-d]pyrimidin-6-yl)oxazolo[4,5-b]pyridin-5-yl]-3-methyl-phenol] are 345 nM and 17.9 nM. The like results for `Cc1cc(Cl)cc(O)c1-c1ccc2oc(N3CCc4[nH]c(=O)ccc4C3)nc2n1` [Example 37, 6-[5-(4-Chloro-2-hydroxy-6-methyl-phenyl)oxazolo[4,5-b]pyridin-2-yl]-1,5,7,8-tetrahydro-1,6-naphthyridin-2-one] were, in that order, 676 nM and 71.1 nM.

Take `Cc1cc(C(F)(F)F)cc(O)c1-c1ccc2oc(N3Cc4[nH]c(=O)[nH]c(=O)c4C3)nc2n1` [Example 44, 6-[5-[2-Hydroxy-6-methyl-4-(trifluoromethyl)phenyl]oxazolo[4,5-b]pyridin-2-yl]-5,7-dihydro-1H-pyrrolo[3,4-d]pyrimidine-2,4-dione]: the IC50 at NLRP3 [2] was 245 nM. For `Cc1cc(Cl)cc(O)c1-c1ccc2oc(N3Cc4cccc(F)c4C3)nc2n1` [Example 9, 5-Chloro-2-[2-(4-fluoroisoindolin-2-yl)oxazolo[4,5-b]pyridin-5-yl]-3-methyl-phenol], inhibition at NLRP3 [2] was half-maximal at 263 nM (IC50).

Turning to `Cc1cc(C#N)cc(O)c1-c1ccc2oc(N3Cc4ccccc4C3)nc2n1` [Example 16, 3-Hydroxy-4-(2-isoindolin-2-yloxazolo[4,5-b]pyridin-5-yl)-5-methyl-benzonitrile], half-maximal inhibition on NLRP3 [2] (IC50) was put at 66 nM. Compared with the last molecule, the IC50 is about 4-fold lower. Take `Cc1cc(C(F)(F)F)cc(O)c1-c1ccc2oc(N3Cc4nccnc4C3)nc2n1` [Example 23, 2-[2-(5,7-Dihydropyrrolo[3,4-b]pyrazin-6-yl)oxazolo[4,5-b]pyridin-5-yl]-3-methyl-5-(trifluoromethyl)phenol]: at NLRP3 [1], the IC50 amounted to 3720 nM. On NLRP3 [2], `Cc1cc(Cl)cc(O)c1-c1ccc2oc(N3Cc4ccccc4C3)nc2n1` [Example 6, 5-Chloro-2-(2-isoindolin-2-yloxazolo[4,5-b]pyridin-5-yl)-3-methyl-phenol] came in with an IC50 of 90 nM.

`Cc1cc(Cl)cc(O)c1-c1ccc2oc(N3CCc4c(C#N)cccc4C3)nc2n1` [Example 33, 2-(5-(4-Chloro-2-hydroxy-6-methylphenyl)oxazolo[4,5-b]pyridin-2-yl)-1,2,3,4-tetrahydroisoquinoline-5-carbonitrile] showed an IC50 against NLRP3 [2] of 447 nM. This IC50 is about 5-fold higher than that of the molecule before. With `Cc1cc(Cl)cc(O)c1-c1ccc2oc(N3Cc4ccc5c(c4C3)OCO5)nc2n1` [Example 42, 5-Chloro-2-(2-(6,8-dihydro-7H-[1,3]dioxolo[4,5-e]isoindol-7-yl)oxazolo[4,5-b]pyridin-5-yl)-3-methylphenol], at NLRP3 [2], it took 144 nM to reach half-maximal inhibition (IC50).

Regarding `Cc1cc(Cl)cc(O)c1-c1ccc2oc(N3CCc4nccnc4C3)nc2n1` [Example 40, 5-Chloro-2-[2-(7,8-dihydro-5H-pyrido[3,4-b]pyrazin-6-yl)oxazolo[4,5-b]pyridin-5-yl]-3-methyl-phenol], half-maximal inhibition against NLRP3 [2] (IC50) was put at 71.6 nM. Against the preceding molecule, the IC50 is about 2-fold lower. On the same count and under the same terms, in the case of `COc1cccc2c1CCN(c1nc3nc(-c4c(C)cc(Cl)cc4O)ccc3o1)C2` [Example 34, 5-chloro-2-[2-(5-methoxy-3,4-dihydro-1H-isoquinolin-2-yl)oxazolo[4,5-b]pyridin-5-yl]-3-methyl-phenol] it was 675 nM; in that of `Cc1cc(Cl)cc(O)c1-c1ccc2oc(N3Cc4ccc(O)cc4C3)nc2n1` [Example 8, 2-[5-(4-Chloro-2-hydroxy-6-methyl-phenyl)oxazolo[4,5-b]pyridin-2-yl]isoindolin-5-ol], 69.9 nM. On to `Cc1cc(Cl)cc(O)c1-c1ccc2oc(N3CCc4ccc(F)cc4C3)nc2n1` [Example 35, 5-Chloro-2-[2-(7-fluoro-3,4-dihydro-1H-isoquinolin-2-yl)oxazolo[4,5-b]pyridin-5-yl]-3-methyl-phenol], for which the IC50 against NLRP3 [2] was 236 nM.
